From patent publication US12448368B2, “Indole compounds as androgen receptor modulators” (NIDO BIOSCIENCES, INC., priority 2020, dated 2025)

These compounds were tested against T1, androgen receptor (AR) (Homo sapiens, UniProt P10275, T878A) (assay: AR reporter assay in LNCaP cells expressing ARR2PB-FireflyLuc and CMV-RenillaLuc, antagonist mode (% remaining activity, IC50)). Details: 48 h at 37° C., class symbols A-D, read-out: IC50.
T1 construct: LNCaP cells expressing ARR2PB-FireflyLuc and CMV-RenillaLuc; endogenous in cells; host or cells: LNCaP cells carrying ARR2PB-FireflyLuc and CMV-RenillaLuc reporters
T1 sequence (P10275 1-920 T878A): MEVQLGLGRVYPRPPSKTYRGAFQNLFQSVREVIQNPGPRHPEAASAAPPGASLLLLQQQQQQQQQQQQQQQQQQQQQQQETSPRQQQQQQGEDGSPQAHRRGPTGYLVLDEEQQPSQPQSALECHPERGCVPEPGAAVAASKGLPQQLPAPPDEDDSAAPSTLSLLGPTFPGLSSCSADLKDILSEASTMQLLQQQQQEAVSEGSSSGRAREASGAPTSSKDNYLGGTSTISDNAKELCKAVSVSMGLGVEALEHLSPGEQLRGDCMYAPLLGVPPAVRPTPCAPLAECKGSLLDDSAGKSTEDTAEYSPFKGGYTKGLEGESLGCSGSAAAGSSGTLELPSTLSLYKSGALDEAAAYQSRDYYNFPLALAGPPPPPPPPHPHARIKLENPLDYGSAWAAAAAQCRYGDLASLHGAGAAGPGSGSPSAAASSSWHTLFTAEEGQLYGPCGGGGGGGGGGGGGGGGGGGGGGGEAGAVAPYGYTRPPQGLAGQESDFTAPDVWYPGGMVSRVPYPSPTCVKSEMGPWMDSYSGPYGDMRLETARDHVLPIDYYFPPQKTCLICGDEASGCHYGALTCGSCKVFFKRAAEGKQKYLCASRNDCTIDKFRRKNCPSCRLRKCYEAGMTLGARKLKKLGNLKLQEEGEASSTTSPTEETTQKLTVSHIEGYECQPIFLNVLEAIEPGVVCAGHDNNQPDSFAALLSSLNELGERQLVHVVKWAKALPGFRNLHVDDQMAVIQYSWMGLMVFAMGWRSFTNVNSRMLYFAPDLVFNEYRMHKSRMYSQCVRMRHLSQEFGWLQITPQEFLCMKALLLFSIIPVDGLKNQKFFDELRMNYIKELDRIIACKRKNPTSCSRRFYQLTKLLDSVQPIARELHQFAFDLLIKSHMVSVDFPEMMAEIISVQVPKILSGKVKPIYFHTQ
Format: cell-based
Summary of the method: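 LNCaP cells carrying ARR2PB-firefly and CMV-Renilla luciferase reporters were treated 48 h at 37 °C with compound plus 0.5 nM DHT. Signals were normalised between 0.5 nM DHT alone and 10 uM enzalutamide + DHT to give % remaining activity, and IC50 was obtained by non-linear regression.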

| SMILES | IC50 [µM] |
| --- | --- |
| CC(=O)N1C[C@@H](F)[C@H](Oc2ncc(-c3c[nH]c4c(C#N)cccc34)nc2C)C1 [Compound 272] | 0.1 to 1 |
| Cc1nc(-c2c[nH]c3c(Cl)cccc23)cnc1O[C@@H]1CNC[C@H]1F [Compound 273] | 0.1 to 1 |
| Cc1nc(-c2c[nH]c3c(C#N)cccc23)cnc1OC1CC(N)C1 (stereo not shown) [Compound 274] | 0.1 to 1 |
| Cc1nc(-c2c[nH]c3c(C#N)cccc23)cnc1OC1CCC(N)C1 (stereo not shown) [Compound 275] | > 10 |
| CC(=O)N1CCC(Oc2ncc(-c3n[nH]c4c(Cl)cccc34)nc2C)C1 (stereo not shown) [Compound 276] | 0.1 to 1 |
| Cc1nc(-c2n[nH]c3c(Cl)cccc23)cnc1OC1CCNC1 (stereo not shown) [Compound 277] | 0.1 to 1 |
| COc1nc(-c2c[nH]c3c(C#N)cccc23)cnc1OC1CCN(C(C)=O)C1 (stereo not shown) [Compound 278] | 1 to 10 |
| Cc1nc(-c2c[nH]c3c(C#N)cccc23)cnc1NCC(C)(C)O [Compound 279] | 0.1 to 1 |
| COc1nc(-c2c[nH]c3c(C#N)cccc23)cnc1NCC(C)(C)O [Compound 280] | 0.1 to 1 |
| Cc1nc(-c2c[nH]c3c(C#N)cccc23)cnc1SC1CCNC1 (stereo not shown) [Compound 281] | 1 to 10 |
| N#Cc1cccc2c(-c3cnc(OC4CCNC4)c(C4CC4)n3)c[nH]c12 (stereo not shown) [Compound 282] | 1 to 10 |
| Cc1nc(-c2c[nH]c3c(C#N)cccc23)cnc1OC1CCNC1(C)C (stereo not shown) [Compound 283] | > 10 |
| Cc1nc(-c2c[nH]c3c(C#N)cccc23)cnc1OC1CNC(C)(C)C1 (stereo not shown) [Compound 284] | > 10 |
| Cc1nc(-c2c[nH]c3c(C#N)cccc23)cnc1O[C@H]1CCN[C@@H]1C [Compound 285] | 1 to 10 |
| Cc1nc(-c2c[nH]c3c(C#N)cccc23)cnc1OCC(C)(C)N [Compound 286] | 1 to 10 |
| Cc1nc(-c2c[nH]c3c(C#N)cccc23)cnc1OC(C)CN (stereo not shown) [Compound 287] | 0.1 to 1 |
| COc1nc(-c2c[nH]c3c(C#N)cccc23)cnc1N[C@H]1CCN(C(C)=O)C1 [Compound 288] | < 0.1 |
| COc1nc(-c2c[nH]c3c(C#N)cccc23)cnc1N[C@@H]1CCN(C(C)=O)C1 [Compound 289] | < 0.1 |

| SMILES | IC50 [µM] |
| --- | --- |
| CC(=O)N1CCC(Oc2cnc(-c3c[nH]c4c(C#N)cccc34)cn2)C1 (stereo not shown) [Compound 290] | 1 to 10 |
| CC(=O)N1CCC(Oc2ncc(-c3c[nH]c4c(F)cccc34)nc2C)C1 (stereo not shown) [Compound 291] | 0.1 to 1 |
| CC(=O)N1CCC(Oc2ncc(-c3c[nH]c4ncccc34)nc2C)C1 (stereo not shown) [Compound 292] | > 10 |
| COc1nc(-c2c[nH]c3ncccc23)cnc1NC1CCN(C(C)=O)C1 (stereo not shown) [Compound 293] | > 10 |
| COc1nc(-c2c[nH]c3c(C#N)cccc23)cnc1N(C)C1CCN(C(C)=O)C1 (stereo not shown) [Compound 294] | 0.1 to 1 |
| CC1(C)NC(=O)c2ccc(-c3c[nH]c4c(F)cccc34)nc21 [Compound 295] | 0.1 to 1 |
| Cc1nc(-c2c[nH]c3c(Cl)cccc23)cnc1OC1CCNC1 (stereo not shown) [Compound 296] | < 0.1 |
| Cc1nc(-c2c[nH]c3c(C#N)cccc23)cnc1O[C@@H]1CNC[C@@H]1F [Compound 297] | 0.1 to 1 |
| Cc1nc(-c2c[nH]c3c(=O)n(C)ccc23)ccc1OC1CCNC1 (stereo not shown) [Compound 300] | > 10 |
| Cc1nc(-c2c[nH]c3c(C#N)cccc23)cnc1OCC(C)(C)O [Compound 301] | < 0.1 |
| Cc1nc(-c2c[nH]c3c(C#N)cccc23)cnc1OC(C)CN (stereo not shown) [Compound 303] | 0.1 to 1 |
| CCc1nc(-c2c[nH]c3c(C#N)cccc23)cnc1OC1CCNC1 (stereo not shown) [Compound 305] | > 10 |
| COc1nc(-c2c[nH]c3c(C#N)cccc23)cnc1OC1CCN(C(C)=O)C1 (stereo not shown) [Compound 306] | 1 to 10 |
| CSc1nc(-c2c[nH]c3c(C#N)cccc23)cnc1OC1CCNC1 (stereo not shown) [Compound 307] | > 10 |
| Cc1nc(-c2c[nH]c3c(C#N)cccc23)cnc1OC1(C)CCNC1 (stereo not shown) [Compound 308] | 1 to 10 |
| Cc1nc(-c2coc3cc(F)ccc23)cnc1N [Compound 309] | 0.1 to 1 |
| Cc1nc(-c2coc3c(C#N)cccc23)cnc1N [Compound 310] | > 10 |
| CC(=O)N1CCC(Oc2ncc(-c3c[nH]c4cccnc34)nc2C)C1 (stereo not shown) [Compound 311] | > 10 |

Other lines, results leading:

| IC50 [µM] | SMILES |
| --- | --- |
| 1 to 10 | CC(=O)N1CCC(Oc2ncc(-c3n[nH]c4c(C#N)cccc34)nc2C)C1 (stereo not shown) [Compound 312] |
| 1 to 10 | CC(=O)N1CCC(Oc2ncc(-c3c[nH]c4c(C)cccc34)nc2C)C1 (stereo not shown) [Compound 313] |
| 0.1 to 1 | Cc1cccc2c(-c3ccc4c(n3)C(C)(C)NC4=O)c[nH]c12 [Compound 314] |
| 0.1 to 1 | CC1(C)NC(=O)c2ccc(-c3c[nH]c4ncccc34)nc21 [Compound 315] |
| > 10 | COc1nc(-c2c[nH]c3c(C#N)cccc23)ccc1C(N)=O [Compound 316] |
| 1 to 10 | COCCN1CCC(Oc2ncc(-c3c[nH]c4c(C#N)cccc34)nc2C)C1 (stereo not shown) [Compound 317] |
| 0.1 to 1 | COCC(=O)N1CCC(Oc2ncc(-c3c[nH]c4c(C#N)cccc34)nc2C)C1 (stereo not shown) [Compound 318] |
| 1 to 10 | Cc1nc(-c2c[nH]c3c(C#N)cccc23)cnc1OC1CNCC1(F)F (stereo not shown) [Compound 322] |
| 0.1 to 1 | CC(=O)N1CC(Oc2ncc(-c3c[nH]c4c(C#N)cccc34)nc2C)C(F)(F)C1 (stereo not shown) [Compound 323] |
| 1 to 10 | Cc1nc(-c2c[nH]c3c(C#N)cccc23)ccc1OCC(C)(C)O [Compound 324] |
| 0.1 to 1 | Cc1nc(-c2c[nH]c3c(C#N)cccc23)cnc1OCC1(C)COC1 [Compound 325] |
| 1 to 10 | Cc1nc(-c2c[nH]c3c(C#N)cccc23)cnc1N(C)CC(C)(C)O [Compound 326] |
| 1 to 10 | CCN(CC(C)(C)O)c1ncc(-c2c[nH]c3c(C#N)cccc23)nc1C [Compound 327] |
| > 10 | Cc1nc(-c2c[nH]c3c(C#N)cccc23)cnc1O[C@H]1CN[C@@H](C)C1 [Compound 328] |
| > 10 | Cc1nc(-c2c[nH]c3c(C#N)cccc23)cnc1O[C@H]1CN[C@H](C)C1 [Compound 329] |
| > 10 | Cc1nc(-c2c[nH]c3c(C#N)cccc23)cnc1O[C@@H]1CN[C@@H](C)C1 [Compound 330] |
| > 10 | Cc1nc(-c2c[nH]c3c(C#N)cccc23)cnc1O[C@@H]1CN[C@H](C)C1 [Compound 331] |
| 1 to 10 | Cc1nc(-c2c[nH]c3c(F)cccc23)cnc1OCC(C)(C)O [Compound 332] |
| > 10 | Cc1nc(-c2c[nH]c3c(C#N)cccc23)cnc1OCC1(O)CC1 [Compound 333] |
| 1 to 10 | Cc1nc(-c2c[nH]c3c(C#N)cccc23)cnc1O[C@@H](C)[C@H](C)O [Compound 334] |
| 1 to 10 | Cc1nc(-c2c[nH]c3c(C#N)cccc23)cnc1O [Compound 335] |
| 0.1 to 1 | Cc1nc(-c2csc3cc(F)ccc23)cnc1OCC(C)(C)O [Compound 336] |
| 0.1 to 1 | Cc1nc(-c2coc3c(Cl)cccc23)cnc1OCC(C)(C)O [Compound 337] |
| > 10 | Cc1nc(-c2coc3ccccc23)cnc1OCC(C)(C)O [Compound 338] |
| > 10 | Cc1nc(-c2c[nH]c3c(C#N)cccc23)cnc1OCCO [Compound 340] |
| 1 to 10 | Cc1nc(-c2c[nH]c3c(C#N)cccc23)cnc1OCC(C)O (stereo not shown) [Compound 341] |
| > 10 | CC(C)(O)COc1ncc(-c2c[nH]c3c(C#N)cccc23)nc1C1CC1 [Compound 342] |
| > 10 | Cc1nc(-c2c[nH]c3c(Cl)nccc23)cnc1OCC(C)(C)O [Compound 343] |
